Reference: patent publication US20130280755A1, “THERAPEUTIC METHODS FOR SOLID DELIVERY” (Fred Hutchinson Cancer Research Center, priority 2010, published 2013)

What was measured:
[1] = system: lymphoma tumor; experiment: Doxorubicin delivered to a lymphoma tumor with a needle array; excised tumor slices imaged by fluorescence and brightfield microscopy; type: in vivo
Source text: Doxorubicin was delivered to a lymphoma tumor using a needle array of the method. The tumor was then excised and sectioned. […] Regions of doxorubicin fluorescence and cell death are localized to a zone within the tumor slice, reflecting spatially constrained doxorubicin delivery.

[2] = system: mouse tumor; experiment: Mouse tumor injected with doxorubicin and control; fluorescent imaging of the apoptosis signal; type: in vivo; conditions: FIG. 14; excitation 640 nm, emission 720 nm of the dye; versus control injection
Experimental: FIG. 14 depicts the use of various indicator dyes according to the method, to monitor spatially restricted delivery of compounds and resulting localized effects on regions of a tumor. A mouse tumor was injected with 1. doxorubicin; and 2. a control. Panel A illustrates excitation at 640 nm and emission at 800 nm of the dye. Panel B illustrates the doxorubicin signal (3.) observed after excitation at 500 nm and emission at 600 nm of doxorubicin. Panel C illustrates an apoptosis signal (4.) observed after excitation at 640 nm and emission at 720 nm of the dye.

[3] = system: Intracranial medulloblastoma model (conditional Patchedl null) mice; experiment: Survival of intracranial medulloblastoma model mice; type: in vivo, mouse; conditions: FIG. 13; 20 mg/kg daily; monitored for 50 days; versus vehicle only
Experimental: The results of the in vivo experiment depicted in FIG. 12 predicted that Shh antagonists would have a positive effect on a mouse model of cancer. Intracranial medulloblastoma model (conditional Patchedl null) mice used in this experiment develop medulloblastoma with an early onset and 100% penetrance. Accordingly, mice were injected daily with 20 mg/kg of either A) vehicle plus IPI-926 (n=12); or B) vehicle only (n=11). The mice were monitored for 50 days for survival, and the results depicted in FIG. 13.

`COc1cccc2c1C(=O)c1c(O)c3c(c(O)c1C2=O)C[C@@](O)(C(=O)CO)C[C@@H]3O[C@H]1C[C@H](N)[C@H](O)[C@H](C)O1` [Doxorubicin] was tested, and the “cell death in tumor slice, relative to doxorubicin fluorescence” value ([1]; FIG. 8, one tumor slice, needle array delivery) was “doxorubicin fluorescence overlaps with the region of dead cells”, the “cell death across tumor depths” value ([1]; FIG. 9, three cross-sectional slices from different depths) was “Cell death was observed in a localized area across the three tumor depths” and the apoptosis signal [2] was “apoptosis overlaps with the region that received doxorubicin”.
For `CC1=C2C[C@H]3[C@@H](CC[C@@H]4C[C@H](NS(C)(=O)=O)CC[C@@]43C)[C@@H]2CC[C@@]2(C1)O[C@@H]1C[C@H](C)CN[C@H]1[C@H]2C` [IPI-926], the survival [3] was “significantly increased survival”.
